# Test results from patent publication US10899639B2, “Composition and method for inhibiting microbial adhesion on surfaces” (SOLENIS TECHNOLOGIES, L.P., priority 2017, dated 2021).
# System: Biofilms grown on stainless steel 316 coupons
# Experiment: biofilm reduction on stainless steel 316 coupons from CDC Biofilm reactor, viable cell plating
# Format: cell-based
# Details: two hours at 28° C. with shaking
# Description: Biofilms were grown on stainless steel 316 coupons in a CDC Biofilm reactor using […] minimal salts growth media for a period of twenty-four hours. […] A control was done with […] media. After the biofilms were grown, each coupon from the rods in the CDC reactor was unscrewed and dropped into a well of the plate. The plate was then incubated for two hours at 28° C. with shaking. Following the incubation, the coupons were removed from the wells and placed into 5 mL of phosphate-buffered saline (PBS) and sonicated for six minutes. Viable cells released into the fluid were then determined by a plating method. The results are recorded as the percent reduction in cell counts relative to the control.
substance,measurement,setting,value
sodium dodecylbenzene sulfonate [Biosoft D-40],percent reduction in cell counts relative to the control,LAS 40 ppm actives,41.83%
same,percent reduction in cell counts relative to the control,LAS 100 ppm actives,81.58%
